Test [1] is described as follows: Relative inhibition of PDE6 and PDE5.
For the next test, the target named is Phosphodiesterase 6. Nature of the test: Inhibition of phosphodiesterase 6 from bovine retina. It is filed as protein assay, Bos taurus.
The target of another test is Phosphodiesterase 1 (Bos taurus, UniProt Q01061+P14100). Nature of the test: Inhibition of phosphodiesterase 1 from bovine heart. It is filed as protein assay.
A short description of test [2]: Relative inhibition of PDE1 and PDE5.
For test [3], the system named is Phosphodiesterase 3 and 5 (Oryctolagus cuniculus). Nature of the test: Relative inhibition of PDE3 and PDE5.
Test [4] has as its target Phosphodiesterase 3 (Oryctolagus cuniculus). Kind of test: Inhibition of phosphodiesterase 3 from rabbit platelets.

Turning to `CCCOc1ccc(S(=O)(=O)N2CCC(CP(=O)(O)OCC)CC2)cc1-c1nc2c(CCC)nn(C)c2c(=O)[nH]1`, the results for the IC50 ratio in test [1], in test [2] and in test [3] were 15, 918 and > 15000, respectively. The values for the IC50 (against Phosphodiesterase 6; on Phosphodiesterase 1; in test [4]) were 2.58 nM, 156 nM and 2600 nM, respectively.
